According to patent US20190053492A1, “SUBSTITUTED PYRIDINE COMPOUNDS AS PESTICIDES” (Bayer CropScience Aktiengesellschaft, priority 2016, published 2019):
Where two headings read alike, the source gives them in different places.

What was measured:
[1] = log P by HPLC on reversed-phase column (C 18), EEC Directive 79/831 Annex V.A8; type: physicochemical; details: 55° C.; for LOGP_HCOOH: log P (HCOOH); for LOGP_NEUTRAL: log P, neutral range; for chromatographic logP: reversed-phase HPLC column (C 18)
Description: Temperature: 55° C. […] Called log P (HCOOH) in the table. […] Called log P (neutral) in the table.

Ctenocephalides felis = Ctenocephalides felis oral test; type: in vivo; details: application rate 100 ppm in citrated cattle blood, after 2 days, adult cat fleas; for pest or weed control at 100 ppm: Ctenocephalides felis, po, 48 h, read-out: efficacy (kill in %)
Description: Ctenocephalides felis—Oral Test Solvent: dimethyl sulphoxide To produce a suitable active ingredient formulation, 10 mg of active ingredient are mixed with 0.5 ml of dimethyl sulphoxide. Dilution with citrated cattle blood gives the desired concentration. About 20 unfed adult cat fleas (Ctenocephalides felis) are placed into a chamber which is closed at the top and bottom with gauze. A metal cylinder whose bottom end is closed with parafilm is placed onto the chamber. The cylinder contains the blood/active ingredient formulation, which can be imbibed by the fleas through the parafilm membrane. After 2 days, the kill in % is determined. 100% means that all of the fleas have been killed; 0% means that none of the fleas have been killed.

Lucilia cuprina = Lucilia cuprina test; type: in vivo; details: application rate 100 ppm, after 2 days, L1 larvae
Description: Lucilia cuprina Test Solvent: dimethyl sulphoxide To produce a suitable active ingredient formulation, 10 mg of active ingredient are mixed with 0.5 ml of dimethyl sulphoxide, and the concentrate is diluted with water to the desired concentration. About 20 L1 larvae of the Australian sheep blowfly (Lucilia cuprina) are transferred into a test vessel containing minced horsemeat and the active ingredient formulation of the desired concentration. After 2 days, the kill in % is determined. 100% means that all the larvae have been killed; 0% means that no larvae have been killed.

Phaedon cochleariae = Phaedon cochleariae spray test; type: in vivo; details: after 7 days, Chinese cabbage leaf discs; for pest or weed control at 100 g/ha / pest or weed control at 500 g/ha: Phaedon cochleariae, foliar, 168 h, read-out: efficacy (beetle larvae killed)
Method in brief: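 Chinese cabbage leaf discs sprayed with compound in acetone/DMF and emulsifier-containing water, then infested with mustard beetle larvae once dry. Efficacy in % scored after 7 days (100% = all larvae killed, 0% = none).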

Spodoptera frugiperda = Spodoptera frugiperda spray test; type: in vivo; details: after 7 days, maize leaf discs; for pest or weed control at 100 g/ha / pest or weed control at 500 g/ha: Spodoptera frugiperda, foliar, 168 h, read-out: efficacy (caterpillars killed)
Method in brief: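 Maize leaf discs were sprayed with compound formulated in acetone/DMF and emulsifier-containing water, dried, then infested with Spodoptera frugiperda caterpillars. Percent kill was scored after 7 days, from 100% (all dead) to 0% (none dead).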

[2] = acidic range pH 2.7, 0.1% aqueous formic acid and acetonitrile, reversed-phase column (C 18)
[3] = HPLC on reversed-phase column (C 18)
[4] = acidic range at pH 2.7, 0.1% aqueous formic acid and acetonitrile, HPLC on reversed-phase column (C 18)
[5] = pH 2.7, LC-MS acidic range, pH 2.7, 0.1% formic acid/acetonitrile, read-out: log P (acidic) / log P (HCOOH)

Row | Structure (SMILES) | LOGP_HCOOH [1, 2] | LOGP_NEUTRAL [1, 3] | efficacy (kill in %) (Ctenocephalides felis) [%] | efficacy (kill in %) (Lucilia cuprina) [%] | efficacy (beetle larvae killed) (Phaedon cochleariae; application rate 500 g/ha) [%] | efficacy (caterpillars killed) (Spodoptera frugiperda; application rate 500 g/ha) [%] | efficacy (beetle larvae killed) (Phaedon cochleariae; application rate 100 g/ha) [%] | efficacy (caterpillars killed) (Spodoptera frugiperda; application rate 100 g/ha) [%] | LOGP_HCOOH [1, 4] | chromatographic logP [1, 5] | chromatographic logP ([1]; pH 7.8, LC-MS neutral range, pH 7.8, ammonium hydrogencarbonate/acetonitrile, read-out: log P (neutral)) | pest or weed control at 100 ppm (Ctenocephalides felis) [%] | pest or weed control at 100 g/ha (Phaedon cochleariae; application rate 100 g/ha) [%] | pest or weed control at 500 g/ha (Phaedon cochleariae; application rate 500 g/ha) [%] | pest or weed control at 100 g/ha (Spodoptera frugiperda; application rate 100 g/ha) [%] | pest or weed control at 500 g/ha (Spodoptera frugiperda; application rate 500 g/ha) [%]
1 | CC(C)C(=O)Nc1cc(-c2ccc(OC(F)(F)F)cc2)cc(C(=O)NCc2c(F)cc(C#N)cc2F)n1 [Example I-070] | 4.31 | 4.15 | 98 | 100 | 100 | 83 |  |  |  |  |  |  |  |  |  | 
2 | N#Cc1ccc(CNC(=O)c2cc(-c3ccc(OC(F)(F)F)cc3)cc(NC(=O)C3CC3)n2)cc1F [Example I-080] | 4.01 | 3.87 | 100 | 100 | 100 | 100 | 100 | 83 |  |  |  |  |  |  |  | 
3 | CC(C)C(=O)Nc1cc(-c2ccc(OC(F)(F)F)cc2)cc(C(=O)NCc2ccc(C#N)cc2F)n1 [Example I-081] | 4.22 | 4.09 | 100 | 100 | 100 | 100 | 83 | 100 |  |  |  |  |  |  |  | 
4 | N#Cc1cc(F)c(CNC(=O)c2cc(-c3ccc(OC(F)(F)F)cc3)cc(NC(=O)C3CC3)n2)c(F)c1 [Example I-082] | 4.12 | 4.01 | 100 | 100 | 100 | 100 | 100 | 100 |  |  |  |  |  |  |  | 
5 | O=C(NCc1ccc(-c2ncon2)cc1)c1cc(-c2ccc(SC(F)(F)F)cc2)cc(NC(=O)C2CC2)n1 [Example I-093] | 4.28 | 4.15 | 95 | 100 | 100 | 100 | 100 |  |  |  |  |  |  |  |  | 
6 | O=C(NCc1ccc(-c2ncon2)cc1)c1cc(-c2ccc(OC(F)(F)F)cc2)cc(NC(=O)C2CC2)n1 [Example I-094] | 3.96 | 3.84 | 100 | 100 | 100 | 100 | 100 |  |  |  |  |  |  |  |  | 
7 | N#Cc1ccc(CNC(=O)c2cc(-c3ccc(S(=O)(=O)C(F)(F)F)cc3)cc(NC(=O)C3CC3)n2)cc1 [Example I-096] |  | 3.47 | 100 | 100 | 100 | 100 | 100 | 100 |  |  |  |  |  |  |  | 
8 | Cc1cc(-c2cc(NC(=O)C3CC3)nc(C(=O)NCc3ccc(C#N)cc3)c2)ccc1OC(F)(F)F [Example I-098] | 4.21 | 4.11 | 100 | 100 | 100 | 100 | 100 | 100 |  |  |  |  |  |  |  | 
9 | CC(C)(C#N)NC(=O)c1cc(-c2ccc(OC(F)(F)F)cc2)cc(NC(=O)C2CC2)n1 [Example I-108] | 3.77 | 3.64 | 100 | 90 | 83 | 83 |  | 100 |  |  |  |  |  |  |  | 
10 | CCCCNC(=O)c1cc(-c2ccc(OC(F)(F)F)cc2)cc(NC(=O)C2CC2)n1 [Example I-113] |  | 4.06 | 100 | 100 | 100 | 100 |  | 83 | 4.18 |  |  |  |  |  |  | 
11 | O=C(NC1COC1)c1cc(-c2ccc(OC(F)(F)F)cc2)cc(NC(=O)C2CC2)n1 [Example I-117] |  | 2.95 | 100 | 95 | 100 | 100 |  | 100 | 3.07 |  |  |  |  |  |  | 
12 | N#Cc1ccc(CNC(=O)c2cc(-c3ccc(S(=O)(=O)C(F)(F)F)cc3)cc(NC(=O)C3CC3)n2)cc1F [Example I-120] |  | 3.65 | 100 | 100 | 100 | 100 | 100 | 100 | 3.74 |  |  |  |  |  |  | 
13 | N#Cc1ccc(CNC(=O)c2cc(-c3ccc(OC(F)(F)F)cc3F)cc(NC(=O)C3CC3)n2)cc1 [Example I-124] |  | 3.78 | 100 | 100 | 100 | 100 | 100 | 100 | 3.87 |  |  |  |  |  |  | 
14 | O=C(NCC1CC1)c1cc(-c2ccc(OC(F)(F)F)cc2)cc(NC(=O)C2CC2)n1 [Example I-141] |  |  | 100 | 100 | 100 | 100 | 100 | 83 | 3.84 |  |  |  |  |  |  | 
15 | N#Cc1ccc(CNC(=O)c2cc(-c3ccc(C(F)(F)C(F)(F)F)c(F)c3)cc(NC(=O)C3CC3)n2)cc1 [Example I-149, N-(4-Cyanobenzyl)-6-[(cyclopropylcarbonyl)amino]-4-[3-fluoro-4-(pentafluoroethyl)phenyl]pyridine-2-carboxamide] |  | 4.14 |  | 100 |  |  |  |  | 4.25 | 4.25 | 4.14 | 100 | 100 | 100 | 100 | 100
16 | N#Cc1ccc(CNC(=O)c2cc(-c3ccc(S(F)(F)(F)(F)F)cc3)cc(NC(=O)C3CC3)n2)cc1 [Example I-173] |  | 4.31 | 100 | 100 | 100 | 100 | 100 | 100 | 3.98 |  |  |  |  |  |  | 
17 | O=C(NCCC(F)(F)F)c1cc(-c2ccc(OC(F)(F)F)cc2)cc(NC(=O)C2CC2)n1 [Example I-176] |  | 3.83 | 100 | 100 | 100 | 100 | 100 | 100 |  |  |  |  |  |  |  | 
18 | N#Cc1ccc(CNC(=O)c2cc(-c3ccc(SC(F)(F)C(F)F)cc3)cc(NC(=O)C3CC3)n2)cc1 [Example I-178, N-(4-Cyanobenzyl)-6-[(cyclopropylcarbonyl)amino]-4-{4-[(1,1,2,2-tetrafluoroethyl)sulphanyl]phenyl}pyridine-2-carboxamide] |  |  |  | 100 |  |  |  |  | 3.81 | 3.81 |  | 100 | 100 | 100 | 100 | 100
